Experiments:
Format in all cases: in vivo
eclipta prostrata [1] = test: Indoor virulence and combined effect, greenhouse pot test, post-emergence stem and leaf spray, fresh weight inhibition
In short: (§1)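 Weeds in greenhouse pots received a spray-tower treatment, either post-emergence at the 3–4 leaf (grasses) or 4–6 leaf (broadleaf) stage, or pre-emergence as a soil spray 24 h after sowing. Compounds were applied in acetone diluted with 0.1 wt% Tween-80 water, alone or mixed, in g/ha. Fresh weight inhibition was measured at 21 days, with synergy judged by Gowing expected efficacy (E−E0 >10%).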

eleusine indica = test: Indoor virulence and combined effect, greenhouse pot test, pre-emergence soil spray treatment, fresh weight inhibition
Description: (§2) The active ingredients A and B are respectively screened and an indoor combined effect of the composition on weeds was evaluated by an indoor test and a field test, to determine a combined effect of the composition on weeds.
(§3) Quantitative seeds of Poaceae weeds (echinochloa crusgalli, Digitaria sanguinalis, setaria viridis, Eleusine indica, avena fatua, alopecurus japonicus, alopecurus aequalis, Lolium multiflorum) and broadleaf weeds (eclipta prostrata, rorippa dubia, Abutilon theophrasti, conyza canadensis, veronica persica, myosoton aquaticum, polygonum lapathifolium, galium aparine var. tenerum, alisma plantago-aquatica, geranium carolinianum) were sown in paper cup containing nutrient soil with a diameter of 7 cm, covered with soil for 1 cm after sowing. After pressing and watering, they were cultured in a greenhouse according to a conventional method. Poaceae weeds grew to 3˜4 leaf stage, broad-leaved weeds grew to 4˜6 leaf stage, spraying treatment to both stem and leaf was performed; and pre-seedling soil spray treatment was performed 24 hours after sowing. Following an experimental design dosage, a WP-2000 walking spray tower (spindle speed 96 mm/r, spray height 200 mm, effective spray amplitude of nozzle 350 mm, nozzle flow rate 390 mL/min, nozzle walking speed 210 mm/s) was used for the spray treatment. The experiment was repeated three times. After being treated, a sample material is placed in an operation hall, and after the drug solution is naturally dried out, the sample material is placed in a greenhouse and managed according to the conventional method. A reaction of weeds to the drug agent is observed and recorded, and a regularly visual check of a control effect of the drug agent on weeds was performed after the treatment.
(§4) All of original drugs were using acetone as a solvent, being diluted with 0.1 wt % emulsifier of Tween-80 aqueous solution, and being diluted right before using.
(§5) When determining a ratio or content of the active ingredient A and the active ingredient B, it should be measured from characteristics of action of both agents and virulence thereof, as well as the main purpose of use of a formula shall also be considered in. In the present study, on a basis of previous pre-test, the dosages of the active ingredient A and the active ingredient B were set, when being used alone and mixed, as shown in the following table. Water containing no agent, but containing the same solvent and emulsifier was used as a blank control.
(§6) Repeat 4 times for each treatment, 3 pots per treatment each time and 30 weed seeds were sown for each pot.
(§7) Adopting an absolute number survey method, using a blade to cut the whole seedling of surviving weed along soil surface, and weighting the fresh weight of the weed with an analytical balance. For weeds that had died, counting the fresh weight as zero.
(§8) Survey period and frequency: 21 days after the treatment, total 1 investigation.
(§9) The theoretical fresh weight inhibition rate (E0-Expected Efficacy=[…]) of each treatment combination was calculated by Gowing method, and then compared with the measured inhibition rate (E-Observed Efficacy) to evaluate the combined effect type of both on weeds. When E-E0 value was greater than 10%, it was counted as a synergistic effect, less than −10%, it was counted as an antagonistic effect, and between −10%˜10%, it was counted as an additive effect. According to a plurality of factors including an actual control efficacy, a herbicide characteristic, a formula balance and other factors to determine the best ratio. In the formula, X is the fresh weight inhibition rate of the ingredient A at a dosage of P; Y is the fresh weight inhibition rate of the active ingredient B at a dosage of Q.
(§10) The statistical results are shown in Table 1 to Table 44 below, except for those marked clearly as “pre-emergence treatment”, all others are “post-emergence treatment”. […]

digitaria sanguinalis = test: as above
Description: as §2, §3, §4, §5, §6, §7, §8, §9, §10

eclipta prostrata [2] = test: as above
Description: as §2, §3, §4, §5, §6, §7, §8, §9, §10

veronica persica = test: Indoor virulence and combined effect, greenhouse pot test, post-emergence stem and leaf spray, fresh weight inhibition
In short: as §1

setaria viridis = test: as above
In short: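 Greenhouse potted weeds sprayed post-emergence on stem and leaf at 3–4 leaf stage, with A and B alone or mixed; acetone solutions diluted in 0.1 wt% Tween-80, solvent-emulsifier water as blank.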

COCCOC(=O)C(C)(C)OC(=O)c1cc(-n2c(=O)cc(C(F)(F)F)n(C)c2=O)c(F)cc1Cl [Compound A-273]
Fresh weight inhibition rate %, A single agent (eclipta prostrata [1]; Table 11, A 2 g a.i./ha): 28.12% | Fresh weight inhibition rate %, A single agent (eclipta prostrata [1]; Table 11, A 4 g a.i./ha): 38.50% | Fresh weight inhibition rate %, A single agent (eclipta prostrata [1]; Table 11, A 8 g a.i./ha): 46.05% | Fresh weight inhibition rate %, A single agent (eclipta prostrata [1]; Table 11, A 16 g a.i./ha): 52.89% | Fresh weight inhibition rate %, A single agent (eclipta prostrata [1]; Table 12, A 4 g a.i./ha): 38.50% | Fresh weight inhibition rate %, A single agent (eclipta prostrata [1]; Table 12, A 8 g a.i./ha): 46.05% | Fresh weight inhibition rate %, A single agent (eclipta prostrata [1]; Table 12, A 16 g a.i./ha): 52.89% | Fresh weight inhibition rate %, A single agent (eclipta prostrata [1]; Table 42, A 2 g a.i./ha): 28.12% | Fresh weight inhibition rate %, A single agent (eclipta prostrata [1]; Table 42, A 4 g a.i./ha): 38.50% | Fresh weight inhibition rate %, A single agent (eclipta prostrata [1]; Table 42, A 8 g a.i./ha): 46.05% | Fresh weight inhibition rate %, A single agent (eclipta prostrata [1]; Table 42, A 16 g a.i./ha): 52.89% | Fresh weight inhibition rate %, A single agent (eclipta prostrata [1]; Table 43, A 4 g a.i./ha): 38.50% | Fresh weight inhibition rate %, A single agent (eclipta prostrata [1]; Table 43, A 8 g a.i./ha): 46.05%

CCOC(=O)C(C)(C)OC(=O)c1cc(-n2c(=O)cc(C(F)(F)F)n(C)c2=O)c(F)cc1Cl [Compound A-250]
Fresh weight inhibition rate %, A single agent (eleusine indica; Table 21, A 25 g a.i./ha): 69.44% | Fresh weight inhibition rate %, A single agent (eleusine indica; Table 21, A 30 g a.i./ha): 90.86% | Fresh weight inhibition rate %, A single agent (digitaria sanguinalis; Table 39, A 15 g a.i./ha): 68.96% | Fresh weight inhibition rate %, A single agent (digitaria sanguinalis; Table 39, A 20 g a.i./ha): 75.50% | Fresh weight inhibition rate %, A single agent (digitaria sanguinalis; Table 39, A 25 g a.i./ha): 85.50% | Fresh weight inhibition rate %, A single agent (digitaria sanguinalis; Table 40, A 15 g a.i./ha): 68.96% | Fresh weight inhibition rate %, A single agent (digitaria sanguinalis; Table 40, A 20 g a.i./ha): 75.50% | Fresh weight inhibition rate %, A single agent (eclipta prostrata [2]; Table 28, A 5 g a.i./ha): 52.89% | Fresh weight inhibition rate %, A single agent (eclipta prostrata [2]; Table 28, A 10 g a.i./ha): 66.05% | Fresh weight inhibition rate %, A single agent (eclipta prostrata [2]; Table 28, A 15 g a.i./ha): 68.5% | Fresh weight inhibition rate %, A single agent (eclipta prostrata [2]; Table 28, A 20 g a.i./ha): 78.12% | Fresh weight inhibition rate %, A single agent (veronica persica; Table 9, 10 g a.i./ha, post-emergence, 21 days after treatment): 68.79% | Fresh weight inhibition rate %, A single agent (veronica persica; Table 9, 15 g a.i./ha, post-emergence, 21 days after treatment): 70.47% | Fresh weight inhibition rate %, A single agent (veronica persica; Table 9, 20 g a.i./ha, post-emergence, 21 days after treatment): 82.86% | Fresh weight inhibition rate %, A single agent (veronica persica; Table 23, A 5 g a.i./ha): 62.6% | Fresh weight inhibition rate %, A single agent (veronica persica; Table 23, A 10 g a.i./ha): 68.79% | Fresh weight inhibition rate %, A single agent (veronica persica; Table 23, A 15 g a.i./ha): 70.47% | Fresh weight inhibition rate %, A single agent (veronica persica; Table 24, A 5 g a.i./ha): 62.6% | Fresh weight inhibition rate %, A single agent (veronica persica; Table 24, A 10 g a.i./ha): 68.79% | Fresh weight inhibition rate %, A single agent (veronica persica; Table 24, A 15 g a.i./ha): 70.47% | Fresh weight inhibition rate %, A single agent (veronica persica; Table 24, A 20 g a.i./ha): 82.86% | Fresh weight inhibition rate %, A single agent (veronica persica; Table 26, A 2 g a.i./ha): 24.6% | Fresh weight inhibition rate %, A single agent (veronica persica; Table 26, A 5 g a.i./ha): 62.6% | Fresh weight inhibition rate %, A single agent (veronica persica; Table 26, A 10 g a.i./ha): 68.79% | Fresh weight inhibition rate %, A single agent (veronica persica; Table 26, A 15 g a.i./ha): 70.47% | Fresh weight inhibition rate %, A single agent (setaria viridis; Table 6, 10 g a.i./ha, post-emergence, 21 days after treatment): 52.54% | Fresh weight inhibition rate %, A single agent (setaria viridis; Table 6, 15 g a.i./ha, post-emergence, 21 days after treatment): 65.7% | Fresh weight inhibition rate %, A single agent (setaria viridis; Table 6, 20 g a.i./ha, post-emergence, 21 days after treatment): 78.77% | Fresh weight inhibition rate %, A single agent (setaria viridis; Table 8, 10 g a.i./ha, post-emergence, 21 days after treatment): 52.54% | Fresh weight inhibition rate %, A single agent (setaria viridis; Table 8, 15 g a.i./ha, post-emergence, 21 days after treatment): 65.7% | Fresh weight inhibition rate %, A single agent (setaria viridis; Table 8, 20 g a.i./ha, post-emergence, 21 days after treatment): 78.77% | Fresh weight inhibition rate %, A single agent (setaria viridis; Table 10, A 10 g a.i./ha): 52.54% | Fresh weight inhibition rate %, A single agent (setaria viridis; Table 10, A 15 g a.i./ha): 65.7% | Fresh weight inhibition rate %, A single agent (setaria viridis; Table 10, A 20 g a.i./ha): 78.77%
